biological target: C-Raf FL (full length CRAF with Y340E and Y341E activating mutations, co-expressed with h14-3-3 zeta) (Homo sapiens (Human), UniProt P04049, Y340E/Y341E); assay: In vitro Raf activity determination, AlphaScreen p-MEK readout, c-Raf (C-Raf FL); format: biochemical; conditions: c-Raf approximately 4 nM, ATP 1 μM, pre-incubation 60 minutes, reaction 1 hour
Summary of the method: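 Phosphorylation of kinase-dead biotinylated MEK1 (~10 nM) by C-Raf FL (~4 nM) read by AlphaScreen luminescence with anti-phospho-MEK1/2 after EDTA stop. ATP was 1 μM, with a 1 h reaction at room temperature. Compounds were pre-incubated with enzyme and substrate for 60 min in Tris/MgCl2 buffer, pH 7.5.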

Chain of C-Raf FL (full length CRAF with Y340E and Y341E activating mutations, co-expressed with h14-3-3 zeta) (P04049 whole entry Y340E/Y341E): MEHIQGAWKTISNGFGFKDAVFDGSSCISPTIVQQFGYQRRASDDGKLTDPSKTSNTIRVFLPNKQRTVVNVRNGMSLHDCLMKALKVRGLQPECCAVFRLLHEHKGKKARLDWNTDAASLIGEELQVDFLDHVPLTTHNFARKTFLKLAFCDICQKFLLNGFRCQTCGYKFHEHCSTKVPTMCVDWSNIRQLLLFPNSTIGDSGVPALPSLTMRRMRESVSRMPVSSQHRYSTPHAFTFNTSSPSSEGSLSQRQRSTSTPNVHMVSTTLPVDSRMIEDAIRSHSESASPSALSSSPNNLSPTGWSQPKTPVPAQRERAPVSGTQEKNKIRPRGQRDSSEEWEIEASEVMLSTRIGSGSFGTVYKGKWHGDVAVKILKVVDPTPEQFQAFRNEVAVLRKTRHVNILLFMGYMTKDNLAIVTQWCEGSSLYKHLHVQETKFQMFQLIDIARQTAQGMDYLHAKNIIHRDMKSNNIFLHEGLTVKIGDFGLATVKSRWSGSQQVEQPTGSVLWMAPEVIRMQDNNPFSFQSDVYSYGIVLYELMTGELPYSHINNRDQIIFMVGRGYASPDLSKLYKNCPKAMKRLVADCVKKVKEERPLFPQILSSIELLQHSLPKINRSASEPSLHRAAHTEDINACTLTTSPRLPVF
Chain of C-Raf FL (full length CRAF with Y340E and Y341E activating mutations, co-expressed with h14-3-3 zeta) (P63104 whole entry partner): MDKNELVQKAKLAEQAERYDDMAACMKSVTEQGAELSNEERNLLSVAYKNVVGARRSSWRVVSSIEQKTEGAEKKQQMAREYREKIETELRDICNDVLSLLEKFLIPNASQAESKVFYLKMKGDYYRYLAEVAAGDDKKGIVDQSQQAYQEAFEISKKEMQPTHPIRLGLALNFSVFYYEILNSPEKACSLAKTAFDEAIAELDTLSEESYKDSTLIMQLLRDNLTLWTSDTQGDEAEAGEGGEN

Structure (SMILES)	IC50 [nM]
Cc1ccc(NC(=O)c2ccnc(C(F)(F)F)c2F)cc1-c1cc2n(c(=O)c1)CC[C@H]1COCCN21 [Example 416, (S)-3-fluoro-N-(4-methyl-3-(8-oxo-1,2,4,4a,5,6-hexahydro-8H-pyrido[2′,1′:2,3]pyrimido[6,1-c][1,4]oxazin-10-yl)phenyl)-2-(trifluoromethyl)isonicotinamide]	0.4
Cc1ccc(NC(=O)c2ccnc(C(C)(C)F)c2)cc1-c1cc2n(c(=O)c1)CC[C@H]1CCOCCN21 [Example 417, (S)-2-(2-fluoropropan-2-yl)-N-(4-methyl-3-(9-oxo-1,2,5,5a,6,7-hexahydro-4H,9H-pyrido[2′,1′:2,3]pyrimido[1,6-d][1,4]oxazepin-11-yl)phenyl)isonicotinamide]	0.5
Cc1ccc(NC(=O)c2ccnc(C(F)(F)F)c2)cc1-c1cc(F)c2c(c1)N1CCOC[C@H]1[C@](F)(CO)C2 [Example 419]	0.5
Cc1ccc(NC(=O)c2ccnc(C(C)(F)F)c2)cc1-c1cc(F)c2c(c1)N1CCOC[C@H]1[C@](F)(CO)C2 [Example 420, N-(3-((4aS,5S)-5,7-difluoro-5-(hydroxymethyl)-1,2,4,4a,5,6-hexahydro-[1,4]oxazino[4,3-a]quinolin-9-yl)-4-methylphenyl)-2-(1,1-difluoroethyl)isonicotinamide]	0.6
Cc1ncc(NC(=O)c2cccc(C(F)(F)F)c2)cc1-c1cc(F)c2c(c1)N1CCOC[C@H]1[C@](F)(CO)C2 [Example 421, N-(5-((4aS,5S)-5,7-difluoro-5-(hydroxymethyl)-1,2,4,4a,5,6-hexahydro-[1,4]oxazino[4,3-a]quinolin-9-yl)-6-methylpyridin-3-yl)-3-(trifluoromethyl)benzamide]	0.8
Cc1ccc(NC(=O)c2ccnc(C(C)(C)F)c2)cc1-c1cc(F)c2c(c1)N1CCOC[C@H]1[C@](F)(CO)C2 [Example 422, N-(3-((4aS,5S)-5,7-difluoro-5-(hydroxymethyl)-1,2,4,4a,5,6-hexahydro-[1,4]oxazino[4,3-a]quinolin-9-yl)-4-methylphenyl)-2-(2-fluoropropan-2-yl)isonicotinamide]	1
Cc1ccc(NC(=O)c2cnnc(C(F)(F)F)c2)cc1-c1cc(F)c2c(c1)N1CCOC[C@H]1[C@](F)(CO)C2 [Example 423, N-(3-((4aS,5S)-5,7-difluoro-5-(hydroxymethyl)-1,2,4,4a,5,6-hexahydro-[1,4]oxazino[4,3-a]quinolin-9-yl)-4-methylphenyl)-6-(trifluoromethyl)pyridazine-4-carboxamide]	0.7
Cc1ccc(NC(=O)c2ccnc(C(F)(F)F)c2)cc1-c1cc(F)c2c(c1)N1CCOC[C@@H]1[C@@](F)(CO)C2 [Example 424, N-(3-((4aR,5R)-5,7-difluoro-5-(hydroxymethyl)-1,2,4,4a,5,6-hexahydro-[1,4]oxazino[4,3-a]quinolin-9-yl)-4-methylphenyl)-2-(trifluoromethyl)isonicotinamide]	0.2
Cc1ccc(NC(=O)c2ccnc(C(C)(F)F)c2)cc1-c1cc(F)c2c(c1)N1CCOC[C@@H]1[C@@](F)(CO)C2 [Example 425, N-(3-((4aR,5R)-5,7-difluoro-5-(hydroxymethyl)-1,2,4,4a,5,6-hexahydro-[1,4]oxazino[4,3-a]quinolin-9-yl)-4-methylphenyl)-2-(1,1-difluoroethyl)isonicotinamide]	0.4
Cc1ncc(NC(=O)c2cccc(C(F)(F)F)c2)cc1-c1cc(F)c2c(c1)N1CCOC[C@@H]1[C@@](F)(CO)C2 [Example 426, N-(5-((4aR,5R)-5,7-difluoro-5-(hydroxymethyl)-1,2,4,4a,5,6-hexahydro-[1,4]oxazino[4,3-a]quinolin-9-yl)-6-methylpyridin-3-yl)-3-(trifluoromethyl)benzamide]	0.4
Cc1ccc(NC(=O)c2ccnc(C(C)(C)F)c2)cc1-c1cc(F)c2c(c1)N1CCOC[C@@H]1[C@@](F)(CO)C2 [Example 427, N-(3-((4aR,5R)-5,7-difluoro-5-(hydroxymethyl)-1,2,4,4a,5,6-hexahydro-[1,4]oxazino[4,3-a]quinolin-9-yl)-4-methylphenyl)-2-(2-fluoropropan-2-yl)isonicotinamide]	0.6
Cc1ccc(NC(=O)c2cnnc(C(F)(F)F)c2)cc1-c1cc(F)c2c(c1)N1CCOC[C@@H]1[C@@](F)(CO)C2 [Example 428, N-(3-((4aR,5R)-5,7-difluoro-5-(hydroxymethyl)-1,2,4,4a,5,6-hexahydro-[1,4]oxazino[4,3-a]quinolin-9-yl)-4-methylphenyl)-6-(trifluoromethyl)pyridazine-4-carboxamide]	0.1
Cc1ccc(NC(=O)c2ccnc(C(F)(F)F)c2)cc1-c1cc(F)c2c(c1)N1CCOC[C@H]1[C@@](F)(CO)C2 [Example 429, N-(3-((4aS,5R)-5,7-difluoro-5-(hydroxymethyl)-1,2,4,4a,5,6-hexahydro-[1,4]oxazino[4,3-a]quinolin-9-yl)-4-methylphenyl)-2-(trifluoromethyl)isonicotinamide]	0.8
Cc1ccc(NC(=O)c2ccnc(C(C)(F)F)c2)cc1-c1cc(F)c2c(c1)N1CCOC[C@H]1[C@@](F)(CO)C2 [Example 430, N-(3-((4aS,5R)-5,7-difluoro-5-(hydroxymethyl)-1,2,4,4a,5,6-hexahydro-[1,4]oxazino[4,3-a]quinolin-9-yl)-4-methylphenyl)-2-(1,1-difluoroethyl)isonicotinamide]	0.6
Cc1ncc(NC(=O)c2cccc(C(F)(F)F)c2)cc1-c1cc(F)c2c(c1)N1CCOC[C@H]1[C@@](F)(CO)C2 [Example 431, N-(5-((4aS,5R)-5,7-difluoro-5-(hydroxymethyl)-1,2,4,4a,5,6-hexahydro-[1,4]oxazino[4,3-a]quinolin-9-yl)-6-methylpyridin-3-yl)-3-(trifluoromethyl)benzamide]	4.4
Cc1ccc(NC(=O)c2ccnc(C(C)(C)F)c2)cc1-c1cc(F)c2c(c1)N1CCOC[C@H]1[C@@](F)(CO)C2 [Example 432, N-(3-((4aS,5R)-5,7-difluoro-5-(hydroxymethyl)-1,2,4,4a,5,6-hexahydro-[1,4]oxazino[4,3-a]quinolin-9-yl)-4-methylphenyl)-2-(2-fluoropropan-2-yl)isonicotinamide]	0.7
Cc1ccc(NC(=O)c2cnnc(C(F)(F)F)c2)cc1-c1cc(F)c2c(c1)N1CCOC[C@H]1[C@@](F)(CO)C2 [Example 433, N-(3-((4aS,5R)-5,7-difluoro-5-(hydroxymethyl)-1,2,4,4a,5,6-hexahydro-[1,4]oxazino[4,3-a]quinolin-9-yl)-4-methylphenyl)-6-(trifluoromethyl)pyridazine-4-carboxamide]	0.1
Cc1ccc(NC(=O)c2cncc(C(F)(F)F)c2)cc1-c1cc(F)c2c(c1)N1CCOC[C@H]1[C@@](F)(CO)C2 [Example 434, N-(3-((4aS,5R)-5,7-difluoro-5-(hydroxymethyl)-1,2,4,4a,5,6-hexahydro-[1,4]oxazino[4,3-a]quinolin-9-yl)-4-methylphenyl)-5-(trifluoromethyl)nicotinamide]	1.3
Cc1ccc(NC(=O)c2ccnc(C(C)(F)F)c2)cc1-c1cc(F)c2c(c1)N1CCOC[C@@H]1[C@](F)(CO)C2 [Example 436, N-(3-((4aR,5S)-5,7-difluoro-5-(hydroxymethyl)-1,2,4,4a,5,6-hexahydro-[1,4]oxazino[4,3-a]quinolin-9-yl)-4-methylphenyl)-2-(1,1-difluoroethyl) isonicotinamide]	0.3
Cc1ncc(NC(=O)c2cccc(C(F)(F)F)c2)cc1-c1cc(F)c2c(c1)N1CCOC[C@@H]1[C@](F)(CO)C2 [Example 437, N-(5-((4aR,5S)-5,7-difluoro-5-(hydroxymethyl)-1,2,4,4a,5,6-hexahydro-[1,4]oxazino[4,3-a]quinolin-9-yl)-6-methylpyridin-3-yl)-3-(trifluoro-methyl)benzamide]	0.6
Cc1ccc(NC(=O)c2ccnc(C(C)(C)F)c2)cc1-c1cc(F)c2c(c1)N1CCOC[C@@H]1[C@](F)(CO)C2 [Example 438, N-(3-((4aR,5S)-5,7-difluoro-5-(hydroxymethyl)-1,2,4,4a,5,6-hexahydro-[1,4]oxazino[4,3-a]quinolin-9-yl)-4-methylphenyl)-2-(2-fluoropropan-2-yl)isonicotinamide]	0.8
Cc1ccc(NC(=O)c2cnnc(C(F)(F)F)c2)cc1-c1cc(F)c2c(c1)N1CCOC[C@@H]1[C@](F)(CO)C2 [Example 439, N-(3-((4aR,5S)-5,7-difluoro-5-(hydroxymethyl)-1,2,4,4a,5,6-hexahydro-[1,4]oxazino[4,3-a]quinolin-9-yl)-4-methylphenyl)-6-(trifluoromethyl) pyridazine-4-carboxamide]	0.1
Cc1ccc(NC(=O)c2cncc(C(F)(F)F)c2)cc1-c1cc(F)c2c(c1)N1CCOC[C@@H]1[C@](F)(CO)C2 [Example 440, N-(3-((4aR,5S)-5,7-difluoro-5-(hydroxymethyl)-1,2,4,4a,5,6-hexahydro-[1,4]oxazino[4,3-a]quinolin-9-yl)-4-methylphenyl)-5-(trifluoromethyl) nicotinamide]	0.3
Cc1ncc(NC(=O)c2ccnc(C(F)(F)F)c2)cc1-c1ccc2c(c1)N1CCOCC[C@H]1C[C@H]2O [Example 442, N-(5-((5aS,7R)-7-hydroxy-1,2,5,5a,6,7-hexahydro-4H-[1,4]oxazepino [4,5-a]quinolin-10-yl)-6-methylpyridin-3-yl)-2-(trifluoromethyl) isonicotinamide]	0.7
Cc1ncc(NC(=O)c2ccnc(C(F)(F)F)c2)cc1-c1ccc2c(c1)N1CCOCC[C@H]1C[C@@H]2O [Example 443, N-(5-((5aS,7S)-7-hydroxy-1,2,5,5a,6,7-hexahydro-4H-[1,4]oxazepino [4,5-a]quinolin-10-yl)-6-methylpyridin-3-yl)-2-(trifluoromethyl) isonicotinamide]	0.6
Cc1ncc(NC(=O)c2ccnc(C(C)(C)F)c2)cc1-c1ccc2c(c1)N1CCOCC[C@H]1C[C@H]2O [Example 444]	0.4
